Measured values from patent US7189731B2, “Substituted 7-azaquinazoline compounds useful as p38 kinase inhibitors” (Roche Palo Alto LLC, priority 2003, dated 2007).

Experiments:
p38 MAP kinase = biological target: T1, p38 MAP kinase (Homo sapiens, UniProt Q16539); assay: Inhibition of p38 (MAP) Kinase-In Vitro Assay; format: biochemical; details: approximate p38 inhibitory activities; concentration causing 50% inhibition of the p38 enzyme; γ-33P-ATP transfer to MBP; read-out: IC50 μM (P38 MAP KINASE E-03)
T1 construct: made in house; host or cells: E. coli (co-expressed with SEK-1 and MEKK)
Description: The p-38 MAP kinase inhibitory activity of compounds of this invention in vitro was determined by measuring the transfer of the y-phosphate from γ-^33P-ATP by p38 kinase to Myelin Basic Protein (MBP), using the a minor modification of the method described in Ahn et al., J. Biol. Chem., Vol. 266 (7), 4220–4227 (1991).
The phosphorylated form of the recombinant p38 MAP kinase was expressed with SEK-1 and MEKK in E. Coli (see Khokhlatchev et al., J. Biol. Chem. Vol. 272(17), pp. 11057–11062 (1997)), and then purified by affinity chromatography using a Nickel column.
The phosphorylated p38 MAP kinase was diluted in kinase buffer (20 mM 3-(N-morpholino)propanesulfonic acid, pH 7.2, 25 mM β-glycerol phosphate, 5 mM ethylene glycol-bis(beta-aminoethyl ether)-N,N,N′,N′-tetraacetic acid, 1 mM sodium vanadate, 1 mM dithiothreitol, 40 mM magnesium chloride). Test compound dissolved in DMSO or only DMSO (control) was added, and the samples were incubated for 10 min. at 30° C. The kinase reaction was initiated by the addition of a substrate cocktail containing MBP and γ-^33P-ATP. After incubating for an additional 20 min. at 30° C., the reaction was terminated by adding 0.75% phosphoric acid. The phosphorylated MBP was then separated from the residual γ-^33P-ATP using a phosphocellulose membrane (Millipore, Bedfrod, Mass.) and quantitated using a scintillation counter (Packard, Meriden, Conn.).

T1 sequence (Q16539 whole entry): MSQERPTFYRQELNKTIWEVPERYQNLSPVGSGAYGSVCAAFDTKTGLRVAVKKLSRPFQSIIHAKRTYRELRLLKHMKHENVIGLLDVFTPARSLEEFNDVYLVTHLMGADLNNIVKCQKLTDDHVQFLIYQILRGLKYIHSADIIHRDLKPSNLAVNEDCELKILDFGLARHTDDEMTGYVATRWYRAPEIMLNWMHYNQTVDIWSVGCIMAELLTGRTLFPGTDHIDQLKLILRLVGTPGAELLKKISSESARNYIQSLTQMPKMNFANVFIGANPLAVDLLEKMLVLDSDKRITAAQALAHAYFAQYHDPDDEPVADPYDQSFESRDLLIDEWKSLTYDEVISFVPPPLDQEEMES

IC50 (p38 MAP kinase)	melting point	Compound
< 0.05 µM	209.9 to 211.9 °C	CS(=O)(=O)N1CCC(Nc2ncc3cc(Oc4ccc(F)cc4F)ncc3n2)CC1 [Example 1, [6-(2,4-Difluoro-phenoxy)-pyrido[3,4-d]pyrimidin-2-yl]-(1-methanesulfonyl-piperidin-4-yl)-amine]
< 0.5 µM		CC(C)Nc1ncc2cc(Oc3ccc(F)cc3F)ncc2n1 [Example 2, [6-(2,4-Difluoro-phenoxy)-pyrido[3,4-d]py-rimidin-2-yl]-iso-propyl-amine]
< 0.3 µM		Fc1ccc(Oc2cc3cnc(NC4CCOCC4)nc3cn2)c(F)c1 [Example 4, [6-(2,4-Difluoro-phenoxy)-pyrido[3,4-d]py-rimidin-2-yl]-(tet-rahydro-pyran-4-yl)-amine]
